The values below come from paper PMC10487310, “Enzyme‐responsive macrocyclic metal complexes for biomedical imaging” (Bioengineering & Translational Medicine, 2022).

Data set [1] relates to SCC7 tumor. It counts as in vivo, mice. To be noted: for tumor/normal tissue (TN) ratio: Gd 0.7 mg/kg, T1-weighted signal intensity. The protocol: (§1) Five‐week‐old Balb/c or athymic nude mice (Raon Bio, Yongin, Republic of Korea) were used for in vivo experiments. All studies using animals conformed to the Guidelines for the Care and Use of Laboratory Animals of the Institute of Laboratory Animal Resources at Seoul National University (approved animal experimental protocol number, SNU‐190821‐5).
(§2) The biodistribution of macrocyclam derivatives was determined by MRI and positron emission tomography/computed tomography (PET/CT) scanning. Five‐week‐old female Balb/c nude mice were subcutaneously inoculated with 1 × 10^6 SCC7 cells on the dorsal left side. When tumor volumes reached 150 mm^3, samples were intravenously administered. For in vivo MRI, Gd@NrMC or Gd@ErMC was injected at a Gd dose of 0.7 mg/kg. The mice were monitored in vivo at different time points using an MRI scanner (Bruker‐Biospin) equipped with an animal‐imaging coil. For PET/CT imaging, ^64Cu@NrMC or ^64Cu@ErMC was injected at a ^64Cu dose of approximately 240 μCi/mouse, and the mice were monitored in vivo at different time point using a PET/CT scanner (Inveon microPET/CT scanner, Siemens Medical Solutions, Malvern, PA, USA).

In data set [2] the test system is 3T3‐L1 cells. Kind of data set: MTT cell viability. It counts as cell-based. Particulars: 3T3 cells, 24 h treatment. The protocol:
The viability of cells treated with macrocyclam derivatives was assessed by MTT and apoptosis detection assays, and by live/dead cell staining. The 3T3‐L1 cells were seeded onto 24‐well plates at a density of 1 × 10^5 cells per well for 24 h and the cells were treated with macrocyclam derivatives for 24 h. MTT (3‐(4,5‐dimethylthiazol‐2‐yl)‐2,5‐diphenyltetrazolium bromide) solution (final concentration, 500 μM) was added to each well and the cells incubated for 2 h. After aspiration of medium, the cells were dissolved in 200 μl dimethyl sulfoxide (DMSO; Sigma‐Aldrich). Formazan crystals generated by metabolically active cells were quantified by measuring optical density at 570 nm using a microplate reader (Tecan Group Ltd., Seestrasse, Mannedorf, Switzerland). Cell viability was analyzed by calculating the percent optical density of treated cells relative to control cells. Live and dead cell populations were determined using EZ‐view Live/Dead Cell Staining Kits (Biomax, Seoul, Republic of Korea). […] The absorbance of each well was measured at 490/545 nm using fluorescence microscopy (IX70; Olympus, Japan). Cell apoptosis was analyzed using a FACSCalibur flow cytometer (BD Biosciences, CA, USA) with annexin V staining. […] Cell surface expression was analyzed using a FACSCalibur flow cytometer (BD Biosciences), with the results analyzed using FlowJo software (BD Biosciences).

Data set [3] in a line: In vivo safety, H&E histology of major organs. To be noted: Balb/c mice, intravenous, Gd 3.5 mg/kg, 1 week, n = 4 per group. The protocol:
(§3) The in vivo safety of macrocyclam derivatives was determined by histological and serological analyses. Five‐week‐old Balb/c mice were intravenously administered with at Gd@NrMC or Gd@ErMC at a Gd dose of 3.5 mg/kg. Briefly, NrMC (470 nmol) or ErMC (650 nmol) was mixed with gadolinium chloride in sodium acetate buffer (pH 5.0) and incubated for 2 h at 80°C. Unloaded Gd was removed using a PD‐SpinTrap™ G‐25 column. The samples including 70 μg of Gd were intravenously administered to mice. After 1 week, animals (n = 4 per group) were euthanized, and their organs (heart, lung, liver, spleen, and kidney) and sera were collected for histopathological and biochemical evaluation. Extracted organs were fixed in 10% formalin solution for 24 h and embedded in paraffin. For hematoxylin and eosin staining, each organ section was immersed in filtered Harris hematoxylin for 10 s and then in eosin for 30 s. The stained slides were visualized using a Vectra 3.0 Automated Quantitative Pathology Imaging System (PerkinElmer, Hopkinton, MA, USA), and the images were analyzed using InForm v2.4.11. software (PerkinElmer). The serum concentrations of alanine aminotransferase (ALT), aspartate aminotransferase (AST), […] (ALP), blood urea nitrogen (BUN), and total bilirubin (TBIL) were measured using an automatic chemistry analyzer (DRI‐CEHM 3500s; Fujifilm, Kanagawa, Japan).

Data set [4] is described as follows: Hydrodynamic size by dynamic light scattering. It counts as physicochemical. How it is done:
(§4) The size, zeta potential, and morphology of each macrocyclam derivative were determined. Size was measured using dynamic light scattering, and zeta potential was assessed by laser Doppler microelectrophoresis at an angle of 22°, with both size and zeta potential being measured using an ELS8000 instrument (Photal, Osaka, Japan). The relaxation times of Gd‐loaded materials were examined using a 7 T/20 MRI instrument (Bruker‐Biospin, Ettlingen, Germany) at 37°C. Each sample was serially diluted to Gd concentrations of 37, 75, 150, and 300 μM, and the T1‐weighted MR signal intensities of 200‐μl samples were determined. The relaxation rate, r1 (r1 = 1/T1), for each preparation was calculated from acquired images.

Data set [5] can be described thus: Zeta potential by laser Doppler microelectrophoresis. It counts as physicochemical. The protocol:
as §4

Data set [6] can be described thus: Size stability of nanostructure in TDW, PBS or 10% serum. It counts as physicochemical. Particulars: size measured in TDW, PBS or 10% serum (Figure S1). The protocol:
Fig. S1. Serum stability of macrocyclic complex
Size of ErMC was measured in TDW, PBS, or 10% serum condition.

In data set [7] the test system is SCC7 cells. In words: Cellular uptake, in vitro T1 MR imaging. Particulars: Gd 100 μM, 24 h. The data set is classed as cell-based, murine. The protocol: (§5) Cellular uptake was assessed by in vitro MR imaging, ICP‐MS, and scanning electron microscopy combined with energy‐dispersive x‐ray spectroscopy (SEM/EDS) analysis. For in vitro MR imaging, murine squamous cell carcinoma SCC7 cells were seeded onto six‐well plates at a density of 3 × 10^5 cells per well. After 24 h, the cells were treated with Gadovist or macrocyclam derivatives at Gd concentrations of 100 μM for 24 h. MR images were obtained and analyzed using an MRI scanner (Bruker‐Biospin). To assess enzyme‐dependent cellular uptake, 3T3‐L1 cells were pretreated with various concentrations of MMP‐9 (Sigma‐Aldrich). For ICP‐MS analysis, the cells were washed and completely dissolved with 90% nitric acid (Sigma‐Aldrich). To quantify Gd taken up by cells, the dissolved cells were digested with 1 ml of aqua regia (HCl: HNO3 = 3: 1, m/m) at 130°C. The solutions were completely dried and redissolved in deionized water, and the amounts of Gd were measured by ICP‐MS (Varian 820‐MS). For SEM/EDS analysis, SCC7 cells were seeded in cover glass‐inserted 24‐well plates at a density of 2 × 10^5 cells per well, followed by treatment of the samples for 24 h. A field‐emission SEM system (Supra 55VP; Carl Zeiss, Oberkochen, Germany) was used for SEM imaging combined with EDS mapping.

Data set [8] relates to SCC7 cells. Kind of data set: Cellular uptake of Gd by ICP-MS. Particulars: Gd 100 μM, 24 h. The data set is classed as cell-based, murine. The protocol: as §5
The nature of data set [9]: In vivo safety, serum biochemistry (ALT, AST, ALP, BUN, TBIL). To be noted: Balb/c mice, Gd 3.5 mg/kg, 1 week after injection, compared with untreated mice. The protocol:
as §3

For data set [10], the system named is SCC7 cells. Kind of data set: SEM/EDS elemental mapping of treated cells. It counts as cell-based, murine. Particulars: 24 h. The protocol:
as §5

A short description of another data set: T1 relaxivity, 7 T MRI. The data set is classed as physicochemical. Particulars: 37°C, Gd 37, 75, 150 and 300 μM. The protocol: as §4
Data set [11] can be described thus: Gd loading of macrocyclam derivatives by ICP-MS. It counts as physicochemical. To be noted: gadolinium chloride in sodium acetate buffer pH 5.0, 2 h at 80°C, unloaded Gd removed on G-25 column. How it is done:
(§6) Metal ions are complexed with macrocyclam derivatives in acidic condition (Figure 2c). The lyophilized macrocyclam derivatives were dissolved in distilled water. A 100 nmol aliquot of NrMC or ErMC was mixed with gadolinium chloride (Sigma‐Aldrich) or radioactive copper‐64 chloride in sodium acetate buffer (pH 5.0) and incubated for 2 h at 80°C. Unloaded Gd was removed using a PD‐SpinTrap™ G‐25 column (GE Healthcare, Little Chalfont, UK). The loading amount of Gd in each sample was measured by inductively coupled plasma mass spectrometry (ICP‐MS, Varian 820‐MS; Varian, Palo Alto, CA, USA). Gd chelation consists of a reaction between the Gd^3+ and arsenazo III dye under acidic conditions to form a blue–purple complex. Radioactivity was measured using a dose calibrator (Biodex Medical Systems, Shirley, NY, USA).

The subject of data set [12] is 3T3‐L1 cells. In words: Enzyme-dependent cellular uptake of Gd by ICP-MS, MMP-spiked versus blank media. The data set is classed as cell-based. To be noted: 3T3-L1 cells pretreated with MMP-9, ICP-MS. The protocol: as §5
The nature of data set [13]: Copper-64 chloride loading, radioactivity by dose calibrator. To be noted: sodium acetate buffer pH 5.0, 2 h at 80°C. It counts as physicochemical. How it is done:
as §6

In data set [14] the test system is SCC7 tumor. In words: In vivo PET/CT imaging of tumor-bearing mice. How it is done: as §1, §2

Read-outs that look alike come from different tables or passages of the source. Ends that are not written are not given here.

For `O=C([O-])CN1CCN(CC(=O)[O-])CCN([C@H](CO)[C@H](O)CO)CCN(CC(=O)[O-])CC1.[Gd+3]` (racemic) [Gadovist, reference compound], the “change of tumor/normal tissue (TN) ratio over time” value in the data set on SCC7 tumor [1] (1 h to 24 h after intravenous injection) is on record as “not enhanced over time”. Besides, in the data set on 3T3‐L1 cells [2], the “viability of cells (MTT)” value is given as “no effect”.

With “GGPLGVRGGGGG-OH [Gd@ErMC, Gd loaded into enzyme-responsive macrocyclam modified with a PEGylated MMP-cleavable peptide; self-assembled nanoparticles]”, the “histology of heart, lungs, liver, spleen and kidneys” value in data set [3] is given as “no visible microscopically abnormal features”. In addition, in data set [4], the hydrodynamic size worked out at 310.2 ± 50.2 nm. For the same compound, the zeta potential entry in [5] is on record as “slightly positive”. Further, the “nanostructure in physiological conditions” value in data set [6] is reported as “maintained”. Further, the “T1 MRI signal of MMP-overexpressing cells” value in the data set on SCC7 cells [7] is listed as “higher for the Gd@ErMC group than for other groups”. Besides, the “intracellular Gd concentration relative to Gd@NrMC-treated cells” value in the data set with SCC7 cells [8] is listed as 32.2 fold. Moreover, in data set [9], the “liver and kidney function enzyme levels in blood” value is listed as “within normal range”. The “tumor/normal tissue (TN) ratio” value amounted to 1.8 in the data set on SCC7 tumor [1] (1 h after intravenous injection) and 3.4 in the data set on SCC7 tumor [1] (24 h after intravenous injection). The “colocalization of Gd on the cell surface (EDS-SEM)” value with SCC7 cells [10] is given as “bound to cell membranes”. Besides, the “longevity relaxivity (r1)” value in the data set “T1 relaxivity, 7 T MRI” was determined as 33.4 mM⁻¹ s⁻¹. In addition, the gadolinium loading capacity in data set [11] is 29.3 ± 14.5 mol%. The “Gd accumulation in cells treated with MMP relative to blank media” value in the data set with 3T3‐L1 cells [12] amounted to 7.2 fold.

GGPLGVRGGGGG-OH [^64Cu@ErMC]: the “copper-64 chloride loading capacity” value in data set [13] turned out to be 22.4%. Also, the “percentage of injected 64Cu in tumors relative to 64Cu@NrMC-treated mice” value amounted to 2.9 fold in the data set on SCC7 tumor [14] (24 h post-dose) and 2 fold in the data set with SCC7 tumor [14] (48 h post-dose). Besides, in the data set with SCC7 tumor [14] (intravenous, approximately 240 μCi/mouse, SCC7 tumor-bearing mice), the “PET signal in tumor tissue” value is recorded as “enhanced signals”.
